The text below walks through data of the Kinase Knowledgebase extract (Sharma et al. 2016).

Chain of PIK3CA (human) (P42336 whole entry, looked up): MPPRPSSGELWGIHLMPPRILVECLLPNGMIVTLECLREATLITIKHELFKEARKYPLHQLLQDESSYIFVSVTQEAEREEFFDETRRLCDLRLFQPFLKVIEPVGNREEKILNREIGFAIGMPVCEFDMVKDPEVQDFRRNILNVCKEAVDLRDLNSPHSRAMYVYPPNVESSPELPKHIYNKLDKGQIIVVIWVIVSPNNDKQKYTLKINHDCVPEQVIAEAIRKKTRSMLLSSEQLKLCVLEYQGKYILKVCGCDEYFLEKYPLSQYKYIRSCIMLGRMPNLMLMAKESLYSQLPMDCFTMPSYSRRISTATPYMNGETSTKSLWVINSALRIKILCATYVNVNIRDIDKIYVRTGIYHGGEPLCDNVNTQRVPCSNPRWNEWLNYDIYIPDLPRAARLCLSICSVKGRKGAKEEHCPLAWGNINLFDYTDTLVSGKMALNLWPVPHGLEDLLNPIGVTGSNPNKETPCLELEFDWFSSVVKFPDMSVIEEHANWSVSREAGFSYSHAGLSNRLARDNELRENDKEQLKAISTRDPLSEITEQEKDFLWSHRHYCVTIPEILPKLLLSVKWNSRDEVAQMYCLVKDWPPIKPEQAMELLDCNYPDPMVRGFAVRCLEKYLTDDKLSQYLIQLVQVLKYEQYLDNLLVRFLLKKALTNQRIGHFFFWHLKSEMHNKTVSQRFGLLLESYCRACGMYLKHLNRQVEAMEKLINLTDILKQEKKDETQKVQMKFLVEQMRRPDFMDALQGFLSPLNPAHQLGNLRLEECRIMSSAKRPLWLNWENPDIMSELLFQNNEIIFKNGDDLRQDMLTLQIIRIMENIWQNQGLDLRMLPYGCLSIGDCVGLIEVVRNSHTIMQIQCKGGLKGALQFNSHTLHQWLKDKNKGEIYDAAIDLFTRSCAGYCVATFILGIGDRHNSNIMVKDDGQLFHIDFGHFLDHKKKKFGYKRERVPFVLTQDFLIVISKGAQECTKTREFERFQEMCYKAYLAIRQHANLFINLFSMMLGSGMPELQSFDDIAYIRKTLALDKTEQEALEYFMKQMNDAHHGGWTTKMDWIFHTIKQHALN

This test has as its target PIK3CA (human) (UniProt P42336). Description: Assessment of PIK3CA Kinase Activity.
For the molecule `CN(C)C(=O)c1ccc(NC(=O)Nc2ccc(-c3nc(N4CCOCC4)c4ncc(-c5cncnc5)cc4n3)cc2)cc1F`, the half-maximal inhibitory concentration (IC50) was < 50 nM. The result for `CN(C)C(=O)c1ccc(NC(=O)Nc2ccc(-c3nc(N4CCOCC4)c4ccc(-c5cnn(C)c5)cc4n3)cc2F)cc1` reads < 50 nM; that for `CNC(=O)c1ccc(NC(=O)Nc2ccc(-c3nc(N4CCOCC4)c4ncc(-c5cnn(C)c5)cc4n3)cc2)cc1`, < 50 nM; that for `COc1ncc(-c2cnc3c(N4CCOCC4)nc(-c4ccc(NC(=O)Nc5ccc(C(=O)N(C)C)cc5)c(F)c4)nc3c2)cn1`, < 50 nM. The result for `CN(C)C(=O)c1ccc(NC(=O)Nc2ccc(-c3nc(N4CCOCC4)c4ccc(-c5cncnc5)cc4n3)c(F)c2)cc1` reads < 50 nM; that for `COc1ccc(-c2ccc3c(N4CCOCC4)nc(-c4ccc(NC(=O)Nc5ccc(C(=O)N(C)C)cc5)cc4)nc3c2)cn1`, < 50 nM. Turning to `CC(=O)c1ccc(-c2ccc3c(N4CCOCC4)nc(-c4ccc(NC(=O)Nc5ccc(C(=O)N(C)C)cc5)cc4)nc3c2)o1`, the IC50 was < 50 nM. The result for `CN(C)C(=O)c1ccc(NC(=O)Nc2ccc(-c3nc(N4CCOCC4)c4cc(F)c(-c5cccnc5F)cc4n3)cn2)cc1` reads < 50 nM; that for `CN1CCN(C(=O)c2ccc(NC(=O)Nc3ccc(-c4nc(N5CCOCC5)c5ncc(-c6cnn(C)c6)cc5n4)cc3)cc2)CC1`, < 50 nM.

For the molecule `CNC(=O)c1ccc(NC(=O)Nc2ccc(-c3nc(N4CCOCC4)c4ccc(-c5ccco5)cc4n3)cc2)cc1`, the IC50 was < 50 nM. As for `CN(C)C(=O)c1ccc(NC(=O)Nc2ccc(-c3nc(N4CCOCC4)c4cc(F)c(-c5ccco5)cc4n3)cc2)cc1`, the IC50 was 50 to 200 nM. Consider `CN(C)C(=O)c1ccc(NC(=O)Nc2ccc(-c3nc(N4CCOCC4)c4cc(F)c(-c5cccnc5)cc4n3)cc2)c(F)c1`, for which the IC50 was < 50 nM. The value for `CN(C)[C@H]1CCN(C(=O)c2ccc(NC(=O)Nc3ccc(-c4nc(N5CCOCC5)c5ccc(-c6cncnc6)cc5n4)cc3)cc2)C1` was < 50 nM; that for `CN(C)C(=O)c1ccc(NC(=O)Nc2ccc(-c3nc(N4CCOCC4)c4ccc(-c5ccc(CO)o5)cc4n3)cc2)c(F)c1` was < 50 nM.

As for `CN(C)C(=O)c1ccc(NC(=O)Nc2ccc(-c3nc(N4CCOCC4)c4ncc(-c5cccnc5F)cc4n3)cc2)c(F)c1`, the IC50 is < 50 nM.

For the molecule `Cc1ccc(-c2cnc3c(N4CCOCC4)nc(-c4ccc(NC(=O)Nc5ccc(C(=O)N(C)C)cc5)cc4)nc3c2)o1`, the IC50 is < 50 nM.

Take `CN(C)C(=O)c1ccc(NC(=O)Nc2ccc(-c3nc(N4CCOCC4)c4ccc(-c5cnn(C)c5)cc4n3)cn2)c(F)c1`: the IC50 was < 50 nM.

As to `CN(C)C(=O)c1ccc(NC(=O)Nc2ccc(-c3nc(N4CCOCC4)c4ncc(-c5cccnc5)cc4n3)c(F)c2)cc1`, the IC50 is < 50 nM. As for `CN(C)C(=O)c1ccc(NC(=O)Nc2ccc(-c3nc(N4CCOCC4)c4ccc(-c5ccco5)cc4n3)c(F)c2F)cc1`, the concentration for half-maximal inhibition (IC50) was in the range of 50 to 200 nM. The result for `Cc1ccc(-c2ccc3c(N4CCOCC4)nc(-c4ccc(NC(=O)Nc5ccc(C(=O)N(C)C)cc5)cc4F)nc3c2)cn1` reads < 50 nM. The result for `CN(C)C(=O)c1ccc(NC(=O)Nc2ccc(-c3nc(N4CCOCC4)c4ccc(-c5ccsc5)cc4n3)cc2)cc1` reads < 50 nM; that for `Cc1noc(C)c1-c1ccc2c(N3CCOCC3)nc(-c3ccc(NC(=O)Nc4ccc(C(=O)N5CC[C@H](N(C)C)C5)cc4)cc3)nc2c1`, 50 to 200 nM. The result for `CN(C)C(=O)c1ccc(NC(=O)Nc2ccc(-c3nc(N4CCOCC4)c4ccc(-c5ccc(C(=O)O)o5)cc4n3)cc2)cc1` reads < 50 nM; that for `CC(=O)Nc1ccc(NC(=O)Nc2ccc(-c3nc(N4CCOCC4)c4ncc(-c5cnn(C)c5)cc4n3)cc2)cc1`, < 50 nM.

`CN(C)C1CCN(C(=O)c2ccc(NC(=O)Nc3ccc(-c4nc(N5CCOCC5)c5ccc(C(C)(C)O)cc5n4)cc3)cc2)CC1`: the IC50 was < 50 nM.

Consider `CN(C)C(=O)c1ccc(NC(=O)Nc2ccc(-c3nc(N4CCOCC4)c4ccc(-c5ccc(N)nc5)cc4n3)cc2)c(F)c1`, for which the IC50 fell in the range of 50 to 200 nM. The value for `CN(C)C(=O)c1ccc(NC(=O)Nc2ccc(-c3nc(N4CCOCC4)c4cccc(-c5ccc(F)nc5)c4n3)cc2)cc1` was 50 to 200 nM; that for `CC(=O)c1ccc(-c2ccc3c(N4CCOCC4)nc(-c4ccc(NC(=O)Nc5ccc(C(=O)N(C)C)c(F)c5)cc4)nc3c2)o1` was < 50 nM. `CN(C)C(=O)c1ccc(NC(=O)Nc2ccc(-c3nc(N4CCOCC4)c4ccc(-c5cccc(S(C)(=O)=O)c5)cc4n3)cc2)cc1`: the IC50 was < 50 nM. For `COc1ncc(-c2cnc3c(N4CCOCC4)nc(-c4ccc(NC(=O)Nc5ccc(C(=O)N(C)C)cc5)cc4)nc3c2)cn1`, the IC50 was < 50 nM. The result for `CN(C)C(=O)c1ccc(NC(=O)Nc2ccc(-c3nc(N4CCOCC4)c4ncc(-c5cnc(N(C)C)nc5)cc4n3)cc2)cc1` reads < 50 nM; that for `CN(C)C(=O)c1ccc(NC(=O)Nc2ccc(-c3nc(N4CCOCC4)c4ccc(-c5ccc(C#N)o5)cc4n3)cc2)cc1`, < 50 nM. The value for `CN(C)C(=O)c1ccc(NC(=O)Nc2ccc(-c3nc(N4CCOCC4)c4ccc(-c5ccncc5)cc4n3)cc2)cc1` was < 50 nM. As to `COc1ncc(-c2ccc3c(N4CCOCC4)nc(-c4ccc(NC(=O)Nc5ccc(C(=O)N(C)C)cc5)cc4F)nc3c2)cn1`, the IC50 is < 50 nM. Take `CN(C)C(=O)c1ccc(NC(=O)Nc2ccc(-c3nc(N4CCOCC4)c4ncc(-c5cnn(C)c5)cc4n3)c(F)c2F)cc1`: the IC50 was < 50 nM. The result for `CN1CCN(C(=O)c2ccc(NC(=O)Nc3ccc(-c4nc(N5CCOCC5)c5ccc(-c6cccnc6F)cc5n4)cc3)cc2)CC1` reads < 50 nM; that for `CN1CCN(C(=O)c2ccc(NC(=O)Nc3ccc(-c4nc(N5CCOCC5)c5ccc(-c6ccncc6)cc5n4)cc3)cc2)CC1`, < 50 nM. The result for `CN(C)C(=O)c1ccc(NC(=O)Nc2ccc(-c3nc(N4CCOCC4)c4ncc(-c5cccnc5)cc4n3)cc2F)cc1` reads < 50 nM; that for `CN(C)CCN(C)C(=O)c1ccc(NC(=O)Nc2ccc(-c3nc(N4CCOCC4)c4ccc(-c5ccncc5)cc4n3)cc2)cc1`, < 50 nM. The result for `CN(C)C(=O)c1ccc(NC(=O)Nc2ccc(-c3nc(N4CCOCC4)c4ccc(-c5ccncc5F)cc4n3)cc2)cc1` reads < 50 nM. Take `CN(C)C(=O)c1ccc(NC(=O)Nc2ccc(-c3nc(N4CCOCC4)c4ccc(-c5ccc(CO)o5)cc4n3)cc2F)cc1`: the IC50 is < 50 nM. The value for `CN(C)CCN(C)C(=O)c1ccc(NC(=O)Nc2ccc(-c3nc(N4CCOCC4)c4ccc(-c5ccco5)cc4n3)cc2)cc1` was < 50 nM; that for `Cc1ccc(-c2ccc3c(N4CCOCC4)nc(-c4ccc(NC(=O)Nc5ccc(C(=O)N(C)C)cc5)nc4)nc3c2)o1` was < 50 nM; that for `CN(C)C(=O)c1ccc(NC(=O)Nc2ccc(-c3nc(N4CCOCC4)c4ccc(-c5cnc(N(C)C)nc5)cc4n3)cc2F)cc1` was 50 to 200 nM. Regarding `Cc1ccc(-c2ccc3c(N4CCOC(C)C4)nc(-c4ccc(NC(=O)Nc5ccc(C(=O)N(C)C)cc5)cc4)nc3c2)o1` (stereo unspecified), the IC50 was in the range of 50 to 200 nM. As for `CN(C)[C@@H]1CCN(C(=O)c2ccc(NC(=O)Nc3ccc(-c4nc(N5CCOCC5)c5ccc(-c6cncnc6)cc5n4)cc3)cc2)C1`, the IC50 was < 50 nM. The result for `CN(C)C(=O)c1ccc(NC(=O)Nc2ccc(-c3nc(N4CCOCC4)c4ncc(-c5ccnnc5)cc4n3)cc2)cc1` reads < 50 nM; that for `CN(C)C(=O)c1ccc(NC(=O)Nc2ccc(-c3nc(N4CCOCC4)c4ccc(-c5cccc(NS(C)(=O)=O)c5)cc4n3)cc2)cc1`, < 50 nM; that for `CN(C)C(=O)c1ccc(NC(=O)Nc2ccc(-c3nc(N4CCOCC4)c4ncc(-c5cnn(C)c5)cc4n3)cc2F)cn1`, < 50 nM. As for `CN(C)C(=O)c1ccc(NC(=O)Nc2ccc(-c3nc(N4CCOCC4)c4ccc(-c5ccco5)cc4n3)cc2)c(F)c1`, the IC50 is < 50 nM. As to `CN(C)C(=O)c1ccc(NC(=O)Nc2ccc(-c3nc(N4CCOCC4)c4ncc(-c5cncnc5)cc4n3)c(F)c2)cc1`, the IC50 was < 50 nM. `CN(C)C(=O)c1ccc(NC(=O)Nc2ccc(-c3nc(N4CCOCC4)c4ccc(-c5ccccn5)cc4n3)c(F)c2)cc1`: the IC50 is < 50 nM.

In turn, `CNC(=O)c1ccc(NC(=O)Nc2ccc(-c3nc(N4CCOCC4)c4ccc(-c5ccc(C)o5)cc4n3)cc2)cc1` yielded an IC50 of 50 to 200 nM. As for `O=C(Nc1ccc(C(=O)N2CCC(O)C2)cc1)Nc1ccc(-c2nc(N3CCOCC3)c3ccc(-c4ccco4)cc3n2)cc1` (stereo unspecified), the IC50 is < 50 nM. The result for `CN(C)C(=O)c1ccc(NC(=O)Nc2ccc(-c3nc(N4CCOCC4)c4ccc(-c5ccc(C(=O)N(C)C)o5)cc4n3)cc2)cc1` reads < 50 nM; that for `Cc1ccc(-c2ccc3c(N4CCOCC4)nc(-c4ccc(NC(=O)Nc5ccc(C(=O)N(C)C)cc5)cc4)nc3c2)s1`, 50 to 200 nM. The value for `CNC(=O)c1ccc(NC(=O)Nc2ccc(-c3nc(N4CCOCC4)c4ccc(-c5cccc(S(C)(=O)=O)c5)cc4n3)cc2)cc1` was < 50 nM; that for `N[C@@H]1CCN(C(=O)c2ccc(NC(=O)Nc3ccc(-c4nc(N5CCOCC5)c5ccc(-c6cncnc6)cc5n4)cc3F)cc2)C1` was < 50 nM; that for `CNC(=O)c1ccc(NC(=O)Nc2ccc(-c3nc(N4CCOCC4)c4ccc(-c5cncnc5)cc4n3)cc2F)cc1` was 50 to 200 nM. For `CN(C)C(=O)c1ccc(NC(=O)Nc2ccc(-c3nc(N4CCOCC4)c4ccc(-c5ccnc(F)c5)cc4n3)cc2)cc1`, the IC50 was < 50 nM. The value for `CN(C)C(=O)c1ccc(NC(=O)Nc2ccc(-c3nc(N4CCOCC4)c4cc(F)c(-c5cncnc5)cc4n3)cn2)cc1` was < 50 nM; that for `CN(C)C(=O)c1ccc(NC(=O)Nc2ccc(-c3nc(N4CCOCC4)c4ccc(-c5ccoc5)cc4n3)cc2)cc1` was 50 to 200 nM. The result for `CN(C)C(=O)c1ccc(NC(=O)Nc2ccc(-c3nc(N4CCOCC4)c4ncc(-c5cnn(C)c5)cc4n3)cc2)cc1F` reads < 50 nM. In the case of `CN(C)C(=O)c1ccc(NC(=O)Nc2ccc(-c3nc(N4CCOCC4)c4ccc(-c5ccc(C(C)(C)O)o5)cc4n3)cc2)cc1`, the half-inhibitory concentration (IC50) is < 50 nM. The value for `CN(C)C(=O)c1ccc(NC(=O)Nc2ccc(-c3nc(N4CCOCC4)c4ccc(-c5ccnnc5)cc4n3)cc2F)cc1` was 50 to 200 nM; that for `CN(C)C(=O)c1ccc(NC(=O)Nc2ccc(-c3nc(N4CCOCC4)c4ccc(-c5cccc(S(C)(=O)=O)c5)cc4n3)cc2F)cn1` was < 50 nM.

The term IC50 denotes the point on the concentration scale where inhibition reaches its midpoint. Lower therefore signals greater potency in that assay.
